Assay results from patent US20260097138A1, “BIOMATERIAL COATED NANOSTRUCTURES FOR PHOTOACOUSTIC IMAGING AND PHOTOTHERMAL THERAPY OF TUMOR LESIONS” (OSPEDALE SAN RAFFAELE S.R.L., priority 2022, published 2026).
“And” between values parts separate entries of the source, which are not always exact repeats. Equal values may be shown once.

Tests used:
[1] = In vivo PAI of murine bladder after intravesical instillation; set-up: species or system mice; conditions: three cycles of manual handling, two washes
Source text: (§1) US and PAI of GNRs@Chit and GNRs@Chit-Iso4: High-resolution US and PA imaging have been acquired using the Vevo LAZR-X platform (FUJIFILM VisualSonics, Inc., Toronto, ON, Canada). The imaging platform includes a high frequency US system (Vevo 3100) combined with an Nd:YAG nano-second pulsed laser with repetition rate of 20 Hz. The linear US transducer array Mx 550D consists of 256 elements with a nominal center frequency of 40 MHz (25-55 MHz bandwidth) and a spatial resolution of 40 μm with a maximum imaging depth of 15 mm. Light from the laser is delivered to the tissue through optical fibers mounted on either side of the transducer. During volumetric US-PA acquisitions, a stepper motor is used for the linear translation of the US transducer and optical fibers along the sample. The linear stepper motor moves in steps of a minimum of 0:1 mm while capturing 2-D parallel images, for a maximum 3D range distance of 6.4 cm.
(§2) 3D B mode scan was carried out for in vitro (drop) and in vivo (mouse bladder) studies. […]

[2] = Physicochemical characterization of GNRs (VIS-NIR, TEM, zeta potential)
Method: Characterization of the physicochemical properties of GNRs@CTAB, GNRs@Chit and functionalized GNRs@Chit-Iso4: Gold concentration was determined by flame atomic absorption spectroscopy (FAAS) using a SpectraAA 100 Varian spectrometer (Agilent Technologies, Santa Clara, USA). Gold nanorods (100 μL) were dissolved in aqua regia (3 mL) and diluted to 10 mL with ultrapure water prior to analysis. For the calibration of the FAAS analysis, Au standard solutions at 1, 2, 5 and 10 mg/L were prepared by diluting the appropriate amounts of […] TraceCERT® solutions in 30% aqua regia.
VIS-NIR absorption spectra (range 400-1100 nm) were recorded using a Cary 3500 UV-VIS-NIR modular spectrometer (Agilent Technologies, Santa Clara, USA) using a 1 cm path-length plastic cuvette.
Transmission Electron Microscopy (TEM) was performed using a TEM/STEM FEI TECNAI F20 operating at 200 keV equipped with a probe for energy-dispersing x-ray spectroscopy (EDX), selected-area electron diffraction (SAED) and High Angle Annular Dark Field Detector (HAADF). Before the analysis, samples were placed on a continuous-carbon film, supported on a copper grid and dried at 120° C.
Zeta potential measurements were performed using a Zetasizer-nano-S (Malvern Panalytical, Malvern, UK) in DTS1060C-Clear disposable zeta cells, at 25° C.

[3] = test system: MB49-Luc cells; assay: Cell adhesion assay on coated microtiter plates; format: cell-based, murine
Method: (§3) The plates were washed and blocked with 2% BSA in DMEM or RPMI-1640 (200 μl/well, 1 h). MB49-Luc and 5637 cells were detached with DPBS-E, washed twice with DPBS, and suspended in DMEM or RPMI-1640 containing 0.1% BSA (binding buffer-3), and added to the coated-plates (1.5×10^5 cells/well, 100 μl). After 1-2 h of incubation at 37° C., 5% CO2, the plates were washed with binding buffer-3. Adherent cells were fixed and stained with 0.5% crystal violet in 20% methanol. After washing with water, the dye was extracted from cells using a 10% acetic acid solution (140 μl/well) and the absorbance at 570 nm was measured using a microplate reader.

[4] = In vitro PAI of GNRs in agar drops; conditions: agar drop, no IL
Source text: as §1, §2
In vitro PAI of GNRs was carried out as follows: GNRs (30 μl in DPBS with calcium and magnesium) were mixed with a 1% agar solution (30 μl), the mixture was then poured on Parafilm® M (Sigma) and left to solidify in a humidified chamber (FIG. 15). […] PA and US data have been analyzed using VevoLab 3.2.5 software (FIG. 15).

[5] = test system: MB49-Luc derived orthotopic bladder tumor; assay: PAI of orthotopic MB49-Luc bladder tumor after intravesical instillation; format: in vivo, mice; conditions: for detection of lesions undetectable by US imaging: small orthotopic tumor
Method: Murine orthotopic bladder tumor model: All procedures and studies involving mice were approved by the Institutional Animal Care and Use Committee of San Raffaele Scientific Institute and performed according to the prescribed guidelines (IACUC, approval number 942). Female albino C57BL/6J mice (9 weeks old, weighing about 20 g, Charles River Laboratories, Italy) were anesthetized with ketamine (80 mg/kg) and xylazine (15 mg/kg) and kept in dorsal position. Using a 24-gauge catheter, the bladder of each mouse was emptied and instilled with or without MB49-Luc cells (10^5 cells/100 μl in DPBS). Thirty minutes later the catheter was removed, and mice were allowed to recover and returned to their cage. Tumor growth was monitored by measuring the tumor volume through US imaging (see below) and in vivo bioluminescent quantification after administration of luciferin (15 mg/kg, intra peritoneum) using the non-invasive In Vivo Imaging System (IVIS, PerkinElmer, USA).
as §1
3D B mode scan was carried out for in vitro (drop) and in vivo (mouse bladder) studies. The photoacoustic spectra between 680 nm and 970 nm were scanned with a step size of 5 nm; for the in vivo studies (murine bladder) the 3D multispectral PA scans were acquired selecting PA spectral curve of tissue components melanin, deoxy- and oxy-generated blood, and GNRs; the processed wavelengths (680; 722; 764; 810; 924; 970 nm) were automatically selected from the spectral curve used to spectrally unmix the GNRs signal from other endogenous tissue chromophore signals such as oxy, deoxy hemoglobin. The algorithm reported by Luke et al was used to select these wavelengths which is ideal for separating the signal from GNRs from other endogenous absorbers.
Data analyses were conducted using the Vevo® Lab software; volumes of interest were obtained by manually drawing Volumes of Interest (VOIs) on 3D B-mode images. GNRs, melanin, oxy- and deoxy-hemoglobin content were estimated through spectral unmixing analyses of the spectroscopic data.

[6] = test system: 5637 cells; assay: Cell adhesion assay on coated microtiter plates; format: cell-based, human; conditions: crystal violet stain
Method: as §3

[7] = Stability of GNRs in human urine; format: physicochemical; conditions: 37° C.
Method: Stability of GNRs@Chit and GNRs@Chit-Iso4 in human urine: The stability of GNRs@Chit-Iso4 in human urine was assessed by diluting the GNR solution (0.725 mM of Au in 10 ml of water) with human urine samples (10 ml) collected from 10 healthy adult volunteers (4 males and 6 females) and placed under stirring in a water bath at 37° C. At various time points, 1 mL of the mixture was withdrawn, diluted in 10 mL of cold water (+4° C.) and subjected to VIS-NIR. A urine solution (50% in water) was used as the blank reference in the spectrometric analysis.

## GNRs@Chit-Iso4: gold nanorods coated with thiolated chitosan, coupled via NHS-PEG12-maleimide crosslinker to the Iso4 peptide
[1]
  binding in healthy mice: no binding
[2]; TEM
  GNRs length: 90.2±7.2 nm and 90.2 ± 7.2d nm
  GNRs width: 24.9±2.6 nm and 24.9 ± 2.6d nm
[2]; VIS-NIR
  λmax (wavelength of max absorbance, longitudinal-LSPR peak): 802 nm
[2]; calculated as the length/width ratio
  Aspect Ratio: 3.62±0.67 and 3.6 ± 0.6
[3]; MB49-Luc cells in DMEM medium containing 25-75% urine
  increase of cell adhesion caused by urine: ~20%
[3]; MB49-Luc cells, crystal violet stain
  cell adhesion to solid phase coated with the substance: induced cell adhesion and spreading
[4]
  behaviour under pulsed laser with light attenuators without IL: underwent reshaping
[5]; 3 nmol Au, two washing steps, tumor on the left side
  PA signal at tumor without manual handling of urine: lack of PA signal
[5]; 4 days after MB49-Luc cell implantation
  volume of small tumor detected: 7.9 mm^3
[5]
  detection of lesions undetectable by US imaging: can reveal the presence of lesions undetectable with US imaging and bioluminescence
[5]; listed as GNR@Chit-Iso4
  detection of lesions undetectable by US imaging: a neoplastic region in the upper region of the bladder that was undetectable by US scan
[5]; well-established tumor, three cycles of manual handling, two washes
  binding in tumor bearing mice by PAI: to the three well-established neoplastic lesions at the bottom, lateral side and upper part of the bladder, and not present in non-neoplastic tissue
[6]
  cell adhesion to solid phase coated with the substance: induced cell adhesion and spreading
[7]
  incubation time in urine without dramatic loss of optical properties in the NIR: at least 2 h
[7]; human urine, first 40 minutes
  reduction of the absorbance at ~800 nm: 14%
[7]; human urine, following 80 minutes
  further reduction of the absorbance at ~800 nm: 7%
[7]; human urine, up to 2 h
  change in the shape of the LSPR spectrum: No significant change
